Like-named read-outs stand apart in the source and are kept apart here.
What was measured:
kappa opioid receptor [1] = target: T1, kappa opioid receptor (Mus musculus, UniProt P33534); test: Ex-vivo KOR agonistic activity, electrically stimulated mouse vas deferens (MVD) model
T1 construct: from tissue; host or cells: mouse vas deferens (male Swiss Albino mice)
Procedure: a) Ex-Vivo KOR Agonistic Activity Testing, Using Electrically Stimulated Mouse Vas Deferens (MVD) Model:
Ex-vivo, the kappa opioid receptor agonistic activity of test compounds were tested on the electrically stimulated mouse vas deferens (MVD) preparations (Henderson et al., Br. J. Pharmacol., 46, 764-766, 1972; Portoghese et al., Life Sci. 36, 801-805, 1985) and IC50 were determined. In general, vas deferentia were taken from male Swiss Albino mice (30-40 g) and suspended in 8 ml organ baths, at 31° C., containing modified Krebs-Henseleit solution, without magnesium sulphate. Each vas deferens was equilibrated for 45 min at 2.6 mN tension and then stimulated at supramaximal voltage with five 1 ms pulses, at a frequency of 0.1 Hz. Concentration-response curves were determined by cumulative dosing. Inhibitory Concentration, 50% (IC50) values were determined by Sigmoidal dose-response (variable slope) equation, using Prizm v 6.01. The kappa opioid receptor specificity was determined by rightward shift in concentration-response curves in presence of 1 nM norbinaltorphimine (norBNI), a selective kappa opioid receptor antagonist.

kappa opioid receptor [2] = target: T2, kappa opioid receptor (Homo sapiens, UniProt P41145); test: Invitro KOR agonistic activity, cAMP based functional assay; assay type: cell-based
T2 construct: grown in complete Ham's F-12 medium
T2 sequence (P41145 whole entry): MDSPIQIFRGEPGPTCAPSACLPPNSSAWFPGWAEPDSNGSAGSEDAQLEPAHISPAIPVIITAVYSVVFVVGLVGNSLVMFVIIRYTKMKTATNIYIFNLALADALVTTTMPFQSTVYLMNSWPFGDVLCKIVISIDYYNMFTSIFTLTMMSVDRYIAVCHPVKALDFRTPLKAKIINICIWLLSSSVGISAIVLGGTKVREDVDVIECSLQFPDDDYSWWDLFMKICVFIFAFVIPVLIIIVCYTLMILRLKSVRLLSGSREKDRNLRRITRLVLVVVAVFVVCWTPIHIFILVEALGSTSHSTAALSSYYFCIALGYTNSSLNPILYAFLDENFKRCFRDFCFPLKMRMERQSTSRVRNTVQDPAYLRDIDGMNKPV

ICR mice [3] = test: Acetic acid-induced writhing model; assay type: in vivo; details: acetic acid induced pain model, oral or i.v. administration, writhes for 15 min; for ED50: Mus musculus, 0.25 h, read-out: In-vivo ED50
Procedure: (§1) All the animal experiments were carried out in ICR mice, bred in-house. Animals were housed in groups of 6 animals per cage, for a week, in order to habituate them to vivarium conditions (25±4° C., 60-65% relative humidity, 12:12 h light: dark cycle, with lights on at 7.30 am). All the animal experiments were carried out according to the internationally valid guidelines following approval by the ‘Zydus Research Center animal ethical committee’.
Following oral or i.v. administration of test compounds, mice are rested for 5 min before i.p. injection with 10 ml/kg of 0.6% v/v acetic acid in normal saline. […] A writhe is defined as a constriction of the abdominal area, often with extension of the hind legs. Percentage maximum possible effect (MPE) was calculated as below:
% MPE=100−[(No. of writhes in treated mice/No. of writhes in vehicle treated mice)]×100
ED50 dose is determined using GraphPad Prism.

ICR mice [4] = test: Assessment of CNS effects (spontaneous locomotion, sedation, catalepsy), threshold dose; assay type: in vivo; details: lowest dose which shows pharmacodynamic effect (locomotion, sedation, catalepsy), oral or i.v.
Procedure: as §1
Assessment of CNS Effects of Test Compounds
Test compounds were dissolved in normal saline injected by oral or i.v., routes in ICR mice tail vein. […] The dose is scaled down or up if pharmacodynamic effect is present or absent respectively.

[5] = electrically stimulated mouse vas deferens preparation, cumulative dosing, read-out: Ex-vivo IC50
[6] = cAMP direct ELISA, forskolin 20 μM, agonist 20 minutes, read-out: In-vitro EC50

T1 sequence (P33534 whole entry): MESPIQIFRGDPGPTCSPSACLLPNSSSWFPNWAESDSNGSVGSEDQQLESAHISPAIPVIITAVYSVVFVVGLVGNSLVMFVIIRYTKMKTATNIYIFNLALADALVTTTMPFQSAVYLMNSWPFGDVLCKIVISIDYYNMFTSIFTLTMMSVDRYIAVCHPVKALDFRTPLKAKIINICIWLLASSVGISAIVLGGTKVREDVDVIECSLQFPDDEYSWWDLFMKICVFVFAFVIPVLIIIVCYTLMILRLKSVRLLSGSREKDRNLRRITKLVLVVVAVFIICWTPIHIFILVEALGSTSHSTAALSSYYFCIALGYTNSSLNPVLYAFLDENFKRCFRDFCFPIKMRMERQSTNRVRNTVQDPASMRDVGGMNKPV

| Compound | IC50 (kappa opioid receptor [1]) [nM] | EC50 (kappa opioid receptor [2]) [nM] | also measured |
| --- | --- | --- | --- |
| CN(C(=O)COc1ccc(NS(C)(=O)=O)c2cccnc12)[C@H](CN1CC[C@H](O)C1)c1ccccc1 [Compound 6, N-((S)-2-((S)-3-hydroxypyrrolidin-1-yl)-1-phenylethyl)-N-methyl-2-((5-methylsulfonamido)quinolin-8-yloxy)acetamide] | 349 | 0.94 | ED50 (ICR mice [3]): 1.1 mg/kg; CNS TD (ICR mice [4]): 30 mg/kg |
| CN(C(=O)COc1ccc(NS(C)(=O)=O)c2c1CCCN2)[C@H](CN1CC[C@H](O)C1)c1ccccc1 [Compound 15, N-((S)-2-((S)-3-hydroxypyrrolidin-1-yl)-1-phenylethyl)-N-methyl-2-((8-(methylsulfonamido)-1,2,3,4-tetrahydroquinolin-5-yl)oxy)acetamide] | 0.9 | 0.003 | ED50 (ICR mice [3]): 0.92 mg/kg; CNS TD (ICR mice [4]): 10 mg/kg |
| CN(C(=O)COc1ccc2c(c1)CCCN2S(C)(=O)=O)[C@H](CN1CC[C@H](O)C1)c1ccccc1 [Compound 20, N-((S)-2-((S)-3-hydroxypyrrolidin-1-yl)-1-phenylethyl)-N-methyl-2-((1-(methylsulfonyl)-1,2,3,4-tetrahydroquinolin-6-yl)oxy)acetamide] | 1740 | 2.12 | ED50 (ICR mice [3]): 1.8 mg/kg; CNS TD (ICR mice [4]): 30 mg/kg |
| CN1CCCc2c(OCC(=O)N(C)[C@H](CN3CC[C@H](O)C3)c3ccccc3)ccc(NS(C)(=O)=O)c21 [Compound 22, N-((S)-2-((S)-3-hydroxypyrrolidin-1-yl)-1-phenylethyl)-N-methyl-2-((1-methyl-8-(methylsulfonamido)-1,2,3,4-tetrahydroquinolin-5-yl)oxy)acetamide] | 8.1 | 0.008 | ED50 (ICR mice [3]): 2.5 mg/kg; CNS TD (ICR mice [4]): 60 mg/kg |
| COCC(=O)Nc1ccc(OCC(=O)N(C)[C@H](CN2CC[C@H](O)C2)c2ccccc2)c2cccnc12 [Compound 35, N-((S)-2-((S)-3-hydroxypyrrolidin-1-yl)-1-phenylethyl)-2-((8-(2-methoxyacetamido)quinolin-5-yl)oxy)-N-methylacetamide] | 48 | 0.06 |  |
| CN(C(=O)COc1ccc(NS(=O)(=O)N2CCCC2)c2ncccc12)[C@H](CN1CC[C@H](O)C1)c1ccccc1 [Compound 38] | 7.4 | 0.95 |  |
| CN(C(=O)COc1ccc(NC(=N)N)c2ncccc12)[C@H](CN1CC[C@H](O)C1)c1ccccc1 [Compound 40, 2-((8-guanidinoquinolin-5-yl)oxy)-N-((S)-2-((S)-3-hydroxypyrrolidin-1-yl)-1-phenylethyl)-N-methylacetamide] | 1.1 | 0.007 |  |
| CN(C(=O)COc1ccc(NCCO)c2ncccc12)[C@H](CN1CC[C@H](O)C1)c1ccccc1 [Compound 41] | 254 | 1.32 |  |
| CN(C(=O)COc1ccc(NS(C)(=O)=O)c2ncccc12)[C@H](CN1CC[C@H](O)C1)c1cccc([N+](=O)[O-])c1 [Compound 42, N-((S)-2-((S)-3-hydroxypyrrolidin-1-yl)-1-(3-nitrophenyl)ethyl)-N-methyl-2-((8-(methylsulfonamido)quinolin-5-yl)oxy) acetamide] | 50 | 0.044 |  |
| CC(=O)Nc1cccc([C@@H](CN2CC[C@H](O)C2)N(C)C(=O)COc2ccc(NS(C)(=O)=O)c3ncccc23)c1 [Compound 45, N-((S)-1-(3-acetamidophenyl)-2-((S)-3-hydroxypyrrolidin-1-yl)ethyl)-N-methyl-2-((8-(methylsulfonamido)quinolin-5-yl)oxy) acetamide] | 14 | 0.066 |  |
| CN(C(=O)COc1cccc2ncccc12)[C@H](CN1CC[C@H](O)C1)c1cccc(NS(C)(=O)=O)c1 [Compound 46] | 9.5 | 0.042 |  |
| CN(C)c1cccc([C@@H](CN2CC[C@H](O)C2)N(C)C(=O)COc2ccc(NS(C)(=O)=O)c3ncccc23)c1 [Compound 47, N-((S)-1-(3-dimethylaminophenyl)-2-((S)-3-hydroxypyrrolidin-1-yl)ethyl)-N-methyl-2-((8-(methylsulfonamido)quinolin-5-yl)oxy) acetamide] | 88 | 0.691 |  |
| COc1cccc([C@@H](CN2CC[C@H](O)C2)N(C)C(=O)COc2ccc(NS(C)(=O)=O)c3ncccc23)c1 [Compound 49, N-((S)-2-((S)-3-hydroxypyrrolidin-1-yl)-1-(3-methoxyphenyl)ethyl)-N-methyl-2-((8-(methylsulfonamido)quinolin-5-yl)oxy) acetamide] | 1.9 | 0.032 |  |
| CCOC(=O)COc1cccc([C@@H](CN2CC[C@H](O)C2)N(C)C(=O)COc2ccc(NS(C)(=O)=O)c3ncccc23)c1 [Compound 50] | 221 | 0.001 |  |
| CN(C(=O)COc1ccc(NS(C)(=O)=O)c2ncccc12)[C@H](CN1CC[C@H](O)C1)c1cccc(OCC(=O)O)c1 [Compound 51] |  |  | IC50 (kappa opioid receptor [1]; [5]): 16 nM; EC50 (kappa opioid receptor [2]; [6]): 0.11 nM |
| CN(C(=O)COc1ccc(NS(C)(=O)=O)c2ncccc12)[C@H](CN1CC[C@H](O)C1)c1cccc(F)c1 [Compound 52, N-((S)-1-(3-fluorophenyl)-2-((S)-3-hydroxypyrrolidin-1-yl)ethyl)-N-methyl-2-((8-(methylsulfonamido)quinolin-5-yl)oxy) acetamide] | 21 | 0.18 |  |
| CN(C(=O)COc1ccc(NS(C)(=O)=O)c2ncccc12)[C@H](CN1CC[C@H](O)C1)c1cccc(C(F)(F)F)c1 [Compound 53, N-((S)-2-((S)-3-hydroxypyrrolidin-1-yl)-1-(3-(trifluoromethyl)phenyl)ethyl)-N-methyl-2-((8-(methylsulfonamido)quinolin-5-yl)oxy) acetamide] | 73 | 0.68 |  |
| Cc1cccc([C@@H](CN2CC[C@H](O)C2)N(C)C(=O)COc2ccc(NS(C)(=O)=O)c3ncccc23)c1 [Compound 54, N-((S)-2-((S)-3-hydroxypyrrolidin-1-yl)-1-(3-methyl)ethyl)-N-methyl-2-((8-(methylsulfonamido)quinolin-5-yl)oxy)acetamide] | 14 | 0.098 |  |
| CN(C(=O)COc1ccc2ccoc2c1)[C@H](CN1CC[C@H](O)C1)c1cccc([N+](=O)[O-])c1 [Compound 55, 2-(benzofuran-6-yloxy)-N-((S)-2-((S)-3-hydroxypyrrolidin-1-yl)-1-(3-nitrophenyl)ethyl)-N-methylacetamide] | 307 | 1.92 |  |
| CN(C(=O)COc1ccc2ccoc2c1)[C@H](CN1CC[C@H](O)C1)c1cccc(NS(C)(=O)=O)c1 [Compound 56, 2-(benzofuran-6-yloxy)-N-((S)-2-((S)-3-hydroxypyrrolidin-1-yl)-1-(3-(methylsulfonamido)phenyl)ethyl)-N-methylacetamide] | 88 | 1.11 |  |
| COC(=O)Nc1cccc([C@@H](CN2CC[C@H](O)C2)N(C)C(=O)COc2ccc3c(c2)OCO3)c1 [Compound 58, Methyl-(3-((S)-1-(2-(benzo[d][1,3]dioxol-5-yloxy)-N-methylacetamido)-2-((S)-3-hydroxypyrrolidin-1-yl)-ethyl)phenyl)carbamate] | 9.8 | 0.098 |  |
| N-((S)-2-((S)-3-hydroxypyrrolidin-1-yl)-1-phenylethyl)- N-methyl-2-((8-(pyrrolidine-1-sulfonamido)-1,2,3,4- tetrahydroquinolin-5-yloxy)acetamide [Compound 39] |  |  | IC50 (kappa opioid receptor [1]; [5]): 0.95 nM; EC50 (kappa opioid receptor [2]; [6]): 0.088 nM |
| N-((S)-2-((S)-3-hydroxypyrrolidin-1-yl)-1-phenylethyl)- N-methyl-2-((8-sulfonamido)-1,2,3,4-tetrahydroquinolin- 5-yloxy)acetamide [Compound 37] |  |  | IC50 (kappa opioid receptor [1]; [5]): 0.3 nM; EC50 (kappa opioid receptor [2]; [6]): 0.013 nM; In-vivo ED50 (ICR mice [3]): 6.2 mg/kg |
| N-((S)-2-((S)-3-hydroxypyrrolidin-1-yl)-1-phenylethyl)- N-methyl-2-((8-sulfonamido)quinolin-5-yloxy)acetamide [Compound 36] |  |  | IC50 (kappa opioid receptor [1]; [5]): 7.8 nM; EC50 (kappa opioid receptor [2]; [6]): 1.12 nM |
